Experimental data as given in patent publication US6737397B1, “Control of cancer growth through the interaction of [MET5]-enkephalin and the zeta receptor” (The Penn State Research Foundation, priority 1996, dated 2004).
Where two headings read alike, the source gives them in different places. No end group written: not given here.

Experiments:
ζ-opioid receptor = target: T1, ζ-opioid receptor (Homo sapiens, UniProt Q9NZT2); assay: Competition for binding of [3H][Met5]enkephalin (4.0 nM) in nuclear homogenates of HT-29 human colon tumors; set-up: from tissue; host or cells: HT-29 human colon tumor xenografts grown in athymic nude mice; nuclear (P1) and other subcellular fractions
T1 sequence (Q9NZT2 1-677): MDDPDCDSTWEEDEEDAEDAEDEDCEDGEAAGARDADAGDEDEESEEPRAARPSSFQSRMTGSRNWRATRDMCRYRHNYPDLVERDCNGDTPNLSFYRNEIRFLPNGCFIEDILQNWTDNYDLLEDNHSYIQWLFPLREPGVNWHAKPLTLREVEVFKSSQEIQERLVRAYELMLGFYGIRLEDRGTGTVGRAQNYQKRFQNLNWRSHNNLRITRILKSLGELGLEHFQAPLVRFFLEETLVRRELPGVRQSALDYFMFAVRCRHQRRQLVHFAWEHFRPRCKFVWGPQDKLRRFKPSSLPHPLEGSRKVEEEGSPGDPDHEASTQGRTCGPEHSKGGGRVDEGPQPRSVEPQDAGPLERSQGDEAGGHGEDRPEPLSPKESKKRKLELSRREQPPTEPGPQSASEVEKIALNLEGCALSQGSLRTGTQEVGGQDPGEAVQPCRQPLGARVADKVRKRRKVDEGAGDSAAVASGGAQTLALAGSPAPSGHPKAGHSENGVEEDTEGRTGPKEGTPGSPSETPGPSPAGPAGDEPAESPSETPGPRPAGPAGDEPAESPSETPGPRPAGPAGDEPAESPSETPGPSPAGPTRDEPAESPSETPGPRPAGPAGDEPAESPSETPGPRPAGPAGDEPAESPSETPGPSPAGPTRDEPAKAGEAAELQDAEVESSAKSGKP

COLO 205 cells = assay: Growth assay (cell counts) of COLO 205 human colon cancer cells; assay type: cell-based
Experimental: (§1) HT-29, WiDr, and COLO 205 cell lines were obtained from the American Type Culture Collection (Rockville, Md.). HT-29 cells were grown in McCoy's 5A media (modified), WiDr cells in Minimum Essential Media, and COLO 205 cells in RPMI 1640 media; all media contained 10% fetal calf serum, 2 mM […], 1.2% sodium bicarbonate and antibiotics (11 Units/ml penicillin, 10 μg/ml streptomycin, 10 μg/ml neomycin) in a humidified atmosphere of 7% CO2/93% air at 37° C. In some examples, cultures of HT-29 cells were maintained in McCoy's 5A media without fetal calf serum.
(§2) Cells were seeded at equivalent amounts into 75 cm^2 flasks or into 9.6 cm^2 wells (6-well plates, Falcon) and were counted 24 hr later to determine plating efficiency. Drugs or sterile water were added beginning 24 hr after seeding (=0 hours) and both media and drugs were changed daily. All drugs were prepared in sterile water and dilutions represent final concentrations of the compounds. At appropriate times, cells were harvested with 0.05% trypsin/0.53 mM EDTA, centrifuged, and counted with a hemacytometer at 200×. Cell viability was determined by trypan blue staining. At least 2 aliquots/flask or well were counted and 2 flasks or wells/time point/treatment group were sampled.
(§3) To examine the ubiquity of opioid activity with respect to colon cancer, two other colon cancer cell lines were investigated: COLO 205 and WiDr.

HT-29 cells = assay: Growth assay (cell counts) of HT-29 human colon cancer cells in culture; assay type: cell-based; details: 48 hr
Experimental: In some examples, cultures of HT-29 cells were maintained in McCoy's 5A media without fetal calf serum.
as §2

WiDr cells = assay: Growth assay (cell counts) of WiDr human colon cancer cells; assay type: cell-based
Experimental: as §1, §2, §3

[1] = tested on: HT-29 human colon cancer cells; assay: HT-29 human colon cancer xenografts in nude mice treated with OGF and/or naloxone

## CSCC[C@H](NC(=O)[C@H](Cc1ccc(OS(=O)(=O)O)cc1)NC(=O)[C@@H](N)CC(=O)O)C(=O)NCC(=O)N[C@@H](Cc1c[nH]c2ccccc12)C(=O)N[C@@H](CCSC)C(=O)N[C@@H](CC(=O)O)C(=O)N[C@@H](Cc1ccccc1)C(N)=O [CCK-8, cholecystokinin octapeptide]
ζ-opioid receptor
  ability to compete in displacing [3H]-[Met5]-enkephalin binding: exhibit ability to compete

## CC[C@]12CCN(CC3CC3)[C@H](C(=O)c3ccc(O)cc31)[C@@H]2C [EKC, ethylketocyclazocine]
ζ-opioid receptor
  IC50: > 10000 µM
  Ki: > 10000 µM
  ability to compete in displacing [3H]-[Met5]-enkephalin binding: not competitive

## CSCC[C@H](NC(=O)[C@H](Cc1c[nH]c2ccccc12)NC(=O)CNC(=O)[C@H](Cc1ccc(O)cc1)NC(=O)[C@H](C)NC(=O)[C@H](CCC(=O)O)NC(=O)[C@H](CCC(=O)O)NC(=O)[C@H](CCC(=O)O)NC(=O)[C@H](CCC(=O)O)NC(=O)[C@H](CCC(=O)O)NC(=O)[C@H](CC(C)C)NC(=O)[C@H](Cc1c[nH]c2ccccc12)NC(=O)[C@@H]1CCCN1C(=O)CNC(=O)[C@@H]1CCC(=O)N1)C(=O)N[C@@H](CC(=O)O)C(=O)N[C@@H](Cc1ccccc1)C(N)=O [Gastrin]
ζ-opioid receptor
  IC50: 0.0775 ± 0.0075 µM
  Ki: 0.0596 ± 0.0058 µM

## C[C@H](N)C(=O)NCC(=O)N[C@H]1CSSC[C@@H](C(=O)O)NC(=O)[C@H](CO)NC(=O)[C@H]([C@@H](C)O)NC(=O)[C@H](Cc2ccccc2)NC(=O)[C@H]([C@@H](C)O)NC(=O)[C@H](CCCCN)NC(=O)[C@H](Cc2c[nH]c3ccccc23)NC(=O)[C@H](Cc2ccccc2)NC(=O)[C@H](Cc2ccccc2)NC(=O)[C@H](CC(N)=O)NC(=O)[C@H](CCCCN)NC1=O [Somatostatin]
ζ-opioid receptor
  IC50: > 10 µM
  Ki: > 10 µM

## C=CCN1CC[C@]23c4c5ccc(O)c4O[C@H]2C(=O)CC[C@@]3(O)[C@H]1C5 [naloxone]
COLO 205 cells; 10^−6 M
  influence on growth, alone: no influence on growth
COLO 205 cells; 10^−6 M each
  effect of naloxone on suppressive effects of [Met5]-enkephalin on growth: eliminated
HT-29 cells; 10^−6 M each
  effect of concomitant naloxone on [Met5]-enkephalin inhibition of cell number: blocked the inhibitory effects
HT-29 cells; 10^−6 M
  effect on cell growth, alone: no effect on cell growth
WiDr cells; 10^−6 M
  influence on growth, alone: no influence on growth
WiDr cells; 10^−6 M each
  effect of naloxone on suppressive effects of [Met5]-enkephalin on growth: eliminated
[1]; 5 mg/kg OGF with 10 mg/kg naloxone, or 10 mg/kg naloxone alone
  latencies of palpable, visible, or measurable tumors or incidence of cancer versus control mice: No differences
[1]; 10 mg/kg Nal daily
  Latency for measurable tumor appearance, days, range: (10-16) days
  Latency for palpable tumor: 9.3 ± 1.4 days
  Latency for visible tumor: 10.3 ± 1.4 days
  No. of mice with tumors 21 days after inoculation: 4/5
  No. of mice with tumors 50 days after inoculation: 4/5
[1]; 50 days after inoculation, 10 mg/kg naloxone alone
  tumor volume: 1,494±517 mm^3

## CC[C@H](C)[C@H](NC(=O)[C@H](C)NC(=O)[C@H](CC(N)=O)NC(=O)[C@H](CCCCN)NC(=O)[C@H](Cc1ccccc1)NC(=O)[C@H](CC(C)C)NC(=O)[C@@H](NC(=O)[C@@H](NC(=O)[C@H](CC(C)C)NC(=O)[C@@H]1CCCN1C(=O)[C@@H](NC(=O)[C@H](CCC(N)=O)NC(=O)[C@H](CO)NC(=O)[C@H](CCCCN)NC(=O)[C@H](CCC(=O)O)NC(=O)[C@H](CO)NC(=O)[C@@H](NC(=O)[C@H](CCSC)NC(=O)[C@H](Cc1ccccc1)NC(=O)CNC(=O)CNC(=O)[C@@H](N)Cc1ccc(O)cc1)[C@@H](C)O)[C@@H](C)O)C(C)C)[C@@H](C)O)C(=O)N[C@H](C(=O)N[C@@H](CCCCN)C(=O)N[C@@H](CC(N)=O)C(=O)N[C@@H](C)C(=O)N[C@@H](Cc1ccc(O)cc1)C(=O)N[C@@H](CCCCN)C(=O)N[C@@H](CCCCN)C(=O)NCC(=O)N[C@@H](CCC(=O)O)C(=O)O)[C@@H](C)CC [β-Endorphin, β-endorphin]
ζ-opioid receptor
  less potent than [Met5]-enkephalin in displacing radiolabeled [Met5]-enkephalin binding: 4.3 fold

## SKF-10,047
ζ-opioid receptor
  ability to compete in displacing [3H]-[Met5]-enkephalin binding: not competitive
ζ-opioid receptor; read-out: IC50
  IC50: 0.795 ± 0.005 µM
ζ-opioid receptor; read-out: KI
  Ki: 0.612 ± 0.004 µM

## YGGFMRGL [[Met^5]enkephalin-Arg^6-Gly^7-Leu^8, [Met^5,Arg^6,Gly^7,Leu^8]-enkephalin]
ζ-opioid receptor
  IC50: 0.0375 ± 0.0075 µM
  Ki: 0.0289 ± 0.0058 µM

## dynorphin A 1-8 [Dynorphin A-(1-8)]
ζ-opioid receptor
  ability to compete in displacing [3H]-[Met5]-enkephalin binding: not competitive
